Results as given in patent publication US20230119894A1, “THERAPEUTIC OR PROPHYLACTIC METHOD FOR DIABETES USING COMBINATION MEDICINE” (Japan Tobacco Inc., priority 2019, published 2023).

How the values were obtained:
glucose-loaded SD rats [1] = assay: OGTT (Oral Glucose Tolerance Test), Test Example 3; format: in vivo, rat; conditions: male SD rats; 3 mg/kg oral, 16 hours before glucose load; compared to vehicle, FIG. 2
Experimental: Vehicle (0.5% methylcellulose solution), or Compound 1, Compound A, or Compound B (3 mg/kg each) suspended in a 0.5% methylcellulose solution was orally administered in 5 mL/kg to an about 4-hour-fasted male SD rat (8-week old, Nihon Charles River K.K., 5 cases for each group).
Statistical analyses were based on Dunnett's multiple group test. The significance level was two-sided 5%.

glucose-loaded SD rats [2] = assay: OGTT (Oral Glucose Tolerance Test), Test Example 2; format: in vivo, rat; conditions: male SD rats; 1, 3, or 10 mg/kg oral, 16 hours before glucose load; compared to vehicle, FIG. 1
Experimental: Vehicle (0.5% methylcellulose solution) or Compound 1 (1, 3, or 10 mg/kg) suspended in a 0.5% methylcellulose solution was orally administered in 5 mL/kg to an about 4-hour-fasted male SD rat (8-week old, Nihon Charles River K.K., 6 cases for each group).
Statistical analyses were based on Steel's multiple test. The significance level was two-sided 5%.

C[C@H]1C(=O)NC[C@@H]1C(=O)Nc1cc(-c2cc(F)cc(OC(C)(C)C)c2)n(C(F)(F)F)n1 [Example 1, (3R,4R)—N-(5-(3-(tert-butoxy)-5-fluorophenyl)-1-(trifluoromethyl)-1H-pyrazol-3-yl)-4-methyl-5-oxopyrrolidine-3-carboxamide]
blood glucose level after the glucose load (Δ AUC 0-120 minutes, % of Vehicle) (glucose-loaded SD rats [1]): significantly reduced | blood glucose level after the glucose load (Δ AUC 0-120 minutes, % of Vehicle) (glucose-loaded SD rats [2]): significantly reduced
